Laboratory results from US20260007758A1, “SO[…]-2 RECEPTOR (SST2R) NON-PEPTIDE DRUG CONJUGATES AND USES THEREOF” (Crinetics Pharmaceuticals, Inc., priority 2024, published 2026).

How the values were obtained:
Type in all cases: cell-based
[1] = molecular target: T1, human somatostatin receptor subtype 2 (Homo sapiens, UniProt P30874); assay: Functional assay for SSTR2 agonists (HTRF cAMP); conditions: CHO-K1 cells stably expressing human SST2; NKH477-stimulated cAMP; 20 min at 37 C; read-out: hSST2 cAMP Avg EC50
T1 construct: expressed in transfected cells
T1 sequence (P30874 whole entry): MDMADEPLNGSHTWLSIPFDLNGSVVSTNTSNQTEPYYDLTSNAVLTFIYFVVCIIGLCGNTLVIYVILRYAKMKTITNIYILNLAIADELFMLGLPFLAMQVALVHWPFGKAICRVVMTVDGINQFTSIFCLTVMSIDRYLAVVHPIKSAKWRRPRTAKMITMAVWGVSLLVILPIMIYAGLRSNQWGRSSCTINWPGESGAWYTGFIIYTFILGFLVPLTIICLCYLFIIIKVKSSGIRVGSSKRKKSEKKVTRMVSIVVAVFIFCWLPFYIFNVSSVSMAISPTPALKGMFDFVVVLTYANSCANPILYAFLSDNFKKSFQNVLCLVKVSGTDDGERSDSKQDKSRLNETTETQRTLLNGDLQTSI
In short: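 CHO-K1 cells stably expressing human SSTR2 treated with compound (typically 0-10,000 nM final) for 20 min at 37 °C. Lysate cAMP measured by HTRF (665/620 nm ratio), converted via standard curve; EC50 from cAMP vs concentration.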

SST2 = molecular target: T2, SST2 (Homo sapiens, UniProt P30874); assay: PathHunter CHO-K1 SST2 Internalization Assay; conditions: PathHunter CHO-K1 SST2 cells; 90 min at 37 C; luminescence; read-out: Internalization EC50
T2 construct: host or cells: PathHunter CHO-K1 SST2 cells
T2 sequence (P30874 whole entry): as above
In short: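 CHO-K1 cells expressing human SST2, 2500 cells/well, grown 48 h, then exposed 90 min at 37 C to 11-point 1:3 NDC dilutions (final top 10 uM). Beta-Glo luminescence after 60 min at room temperature; four-parameter IC50, duplicate mean, background-corrected.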

[2] = tested on: NCI-H524 human small cell lung cancer cells; assay: H524 assay: inhibition of cell proliferation (CellTiter Glo); conditions: 2 h treatment, washout, additional 70 h incubation
In short: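 NCI-H524 cells were exposed for 2 h to NDC in an 11-point two-fold series starting at 1 uM. The drug was then washed out and cells grew a further 70 h. CellTiter Glo luminescence gave % inhibition versus untreated control, and IC50 came from a four-parameter nonlinear regression.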

Row | Compound | EC50 [1] | EC50 (SST2) | EC50 [2]
1 | CC[C@H](C)[C@@H]([C@@H](CC(=O)N1CCC[C@H]1[C@H](OC)[C@@H](C)C(=O)N[C@H](C)[C@@H](O)c1ccccc1)OC)N(C)C(=O)[C@@H](NC(=O)[C@H](C(C)C)N(C)C(=O)OCc1ccc(NC(=O)[C@H](CCCNC(N)=O)NC(=O)[C@@H](NC(=O)c2cc(OCCOCCOCCOCCOCCC(=O)NCCNc3ncc(-c4cc(C)cc(F)c4)c(N4CCC(N)CC4)c3-c3nc4ccc(Cl)cc4[nH]3)cc(C(=O)NCC(=O)O)c2)C(C)C)cc1)C(C)C [Compound 161] | 0.32 nM | 9.1 nM | 63 nM
2 | CC[C@H](C)[C@@H]([C@@H](CC(=O)N1CCC[C@H]1[C@H](OC)[C@@H](C)C(=O)N[C@H](C)[C@@H](O)c1ccccc1)OC)N(C)C(=O)[C@@H](NC(=O)[C@H](C(C)C)N(C)C(=O)OCc1ccc(NC(=O)[C@H](CCCNC(N)=O)NC(=O)[C@@H](NC(=O)c2cc(NCCOCCC(=O)N(C)CC(=O)NCCNc3ncc(-c4cc(C)cc(F)c4)c(N4CCC(N)CC4)c3-c3nc4ccc(Cl)cc4[nH]3)cc(C(=O)NCC(=O)O)c2)C(C)C)cc1)C(C)C [Compound 162] | 0.27 nM | 4.7 nM | 60 nM
3 | CC[C@H](C)[C@@H]([C@@H](CC(=O)N1CCC[C@H]1[C@H](OC)[C@@H](C)C(=O)N[C@H](C)[C@@H](O)c1ccccc1)OC)N(C)C(=O)[C@@H](NC(=O)[C@H](C(C)C)N(C)C(=O)OCc1ccc(NC(=O)[C@H](CCCNC(N)=O)NC(=O)[C@@H](NC(=O)C[C@@H](N)C(=O)NCCOCCNC(=O)c2cc(NCCOCCC(=O)NCCNc3ncc(-c4cc(C)cc(F)c4)c(N4CCC(N)CC4)c3-c3nc4ccc(Cl)cc4[nH]3)cc(C(=O)NCC(=O)O)c2)C(C)C)cc1)C(C)C [Compound 163] | 0.15 nM | 6.3 nM | 67 nM
4 | CC[C@H](C)[C@@H]([C@@H](CC(=O)N1CCC[C@H]1[C@H](OC)[C@@H](C)C(=O)N[C@H](C)[C@@H](O)c1ccccc1)OC)N(C)C(=O)[C@@H](NC(=O)[C@H](C(C)C)N(C)C(=O)OCc1ccc(NC(=O)[C@H](CCCNC(N)=O)NC(=O)[C@@H](NC(=O)C[C@@H](N)C(=O)NCCOCCNC(=O)c2cc(NCCOCCC(=O)NCCNc3ncc(-c4cc(C)cc(F)c4)c(N4CCC(N)CC4)c3-c3nc4cc(F)cc(OC)c4[nH]3)cc(C(=O)NCC(=O)O)c2)C(C)C)cc1)C(C)C [Compound 164] | 0.35 nM | 4.1 nM | 27 nM
5 | CC[C@H](C)[C@@H]([C@@H](CC(=O)N1CCC[C@H]1[C@H](OC)[C@@H](C)C(=O)N[C@H](C)[C@@H](O)c1ccccc1)OC)N(C)C(=O)[C@@H](NC(=O)[C@H](C(C)C)N(C)C(=O)OCc1ccc(NC(=O)[C@H](CCCNC(N)=O)NC(=O)[C@@H](NC(=O)c2cc(NCCOCCC(=O)NCCNc3ncc(-c4cc(C)cc(F)c4)c(N4CCC(N)CC4)c3-c3nc4ccc(F)cc4[nH]3)cc(C(=O)NCC(=O)O)c2)C(C)C)cc1)C(C)C [Compound 165] | 0.5 nM | 10 nM | 90 nM
6 | CC[C@H](C)[C@@H]([C@@H](CC(=O)N1CCC[C@H]1[C@H](OC)[C@@H](C)C(=O)N[C@H](C)[C@@H](O)c1ccccc1)OC)N(C)C(=O)[C@@H](NC(=O)[C@H](C(C)C)N(C)C(=O)OCc1ccc(NC(=O)[C@H](CCCNC(N)=O)NC(=O)[C@@H](NC(=O)c2cc(NCCOCCC(=O)NCCNc3ncc(-c4cc(C)cc(F)c4)c(N4CCC(N)CC4)c3-c3nc4cc(F)cc(OC)c4[nH]3)cc(C(=O)NCC(=O)O)c2)C(C)C)cc1)C(C)C [Compound 166] | 0.29 nM | 4.5 nM | 18 nM
7 | CC[C@H](C)[C@@H]([C@@H](CC(=O)N1CCC[C@H]1[C@H](OC)[C@@H](C)C(=O)N[C@H](C)[C@@H](O)c1ccccc1)OC)N(C)C(=O)[C@@H](NC(=O)[C@H](C(C)C)N(C)C(=O)OCc1ccc(NC(=O)[C@H](CCCNC(N)=O)NC(=O)[C@@H](NC(=O)c2cc(NCCCCCC(=O)NCCNc3ncc(-c4cc(C)cc(F)c4)c(N4CCC(N)CC4)c3-c3nc4ccc(F)cc4[nH]3)cc(C(=O)NCC(=O)O)c2)C(C)C)cc1)C(C)C [Compound 167] | 0.24 nM | 13 nM | 150 nM
8 | CC[C@H](C)[C@@H]([C@@H](CC(=O)N1CCC[C@H]1[C@H](OC)[C@@H](C)C(=O)N[C@H](C)[C@@H](O)c1ccccc1)OC)N(C)C(=O)[C@@H](NC(=O)[C@H](C(C)C)N(C)C(=O)OCc1ccc(NC(=O)[C@H](CCCNC(N)=O)NC(=O)[C@@H](NC(=O)c2cc(NCCCCCC(=O)N(C)CC(=O)NCCNc3ncc(-c4cc(C)cc(F)c4)c(N4CCC(N)CC4)c3-c3nc4ccc(F)cc4[nH]3)cc(C(=O)NCC(=O)O)c2)C(C)C)cc1)C(C)C [Compound 168] | 0.17 nM | 5.8 nM | 34 nM
9 | CC[C@H](C)[C@@H]([C@@H](CC(=O)N1CCC[C@H]1[C@H](OC)[C@@H](C)C(=O)N[C@H](C)[C@@H](O)c1ccccc1)OC)N(C)C(=O)[C@@H](NC(=O)[C@H](C(C)C)N(C)C(=O)OCc1ccc(NC(=O)[C@H](CCCNC(N)=O)NC(=O)[C@@H](NC(=O)c2cc(NC(=O)CCCC(=O)N(C)CC(=O)NCCNc3ncc(-c4cc(C)cc(F)c4)c(N4CCC(N)CC4)c3-c3nc4ccc(F)cc4[nH]3)cc(C(=O)NCC(=O)O)c2)C(C)C)cc1)C(C)C [Compound 169] | 0.1 nM | 10 nM | 32 nM
10 | CC[C@H](C)[C@@H]([C@@H](CC(=O)N1CCC[C@H]1[C@H](OC)[C@@H](C)C(=O)N[C@H](C)[C@@H](O)c1ccccc1)OC)N(C)C(=O)[C@@H](NC(=O)[C@H](C(C)C)N(C)C(=O)OCc1ccc(NC(=O)[C@H](CCCNC(N)=O)NC(=O)[C@@H](NC(=O)c2cc(NC(=O)CCCC(=O)NCCNc3ncc(-c4cc(C)cc(F)c4)c(N4CCC(N)CC4)c3-c3nc4ccc(Cl)cc4[nH]3)cc(C(=O)NC[C@@H](N)C(=O)O)c2)C(C)C)cc1)C(C)C [Compound 170] | 0.31 nM | 12 nM | 22 nM
11 | CC[C@H](C)[C@@H]([C@@H](CC(=O)N1CCC[C@H]1[C@H](OC)[C@@H](C)C(=O)N[C@H](C)[C@@H](O)c1ccccc1)OC)N(C)C(=O)[C@@H](NC(=O)[C@H](C(C)C)N(C)C(=O)OCc1ccc(NC(=O)[C@H](CCCNC(N)=O)NC(=O)[C@@H](NC(=O)c2cc(NC(=O)CCCC(=O)N(C)CC(=O)NCCNc3ncc(-c4cc(C)cc(F)c4)c(N4CCC(N)CC4)c3-c3nc4ccc(Cl)cc4[nH]3)cc(C(=O)NC[C@@H](N)C(=O)O)c2)C(C)C)cc1)C(C)C [Compound 171] | 0.33 nM | 8.3 nM | 14 nM
12 | CC[C@H](C)[C@@H]([C@@H](CC(=O)N1CCC[C@H]1[C@H](OC)[C@@H](C)C(=O)N[C@H](C)[C@@H](O)c1ccccc1)OC)N(C)C(=O)[C@@H](NC(=O)[C@H](C(C)C)N(C)C(=O)OCc1ccc(NC(=O)[C@H](CCCNC(N)=O)NC(=O)[C@@H](NC(=O)c2cc(NCCCC(=O)N(C)CC(=O)NCCNc3ncc(-c4cc(C)cc(F)c4)c(N4CCC(N)CC4)c3-c3nc4ccc(Cl)cc4[nH]3)cc(C(=O)NC[C@@H](N)C(=O)O)c2)C(C)C)cc1)C(C)C [Compound 172] | 0.33 nM | 6.3 nM | 22 nM
13 | CC[C@H](C)[C@@H]([C@@H](CC(=O)N1CCC[C@H]1[C@H](OC)[C@@H](C)C(=O)N[C@H](C)[C@@H](O)c1ccccc1)OC)N(C)C(=O)[C@@H](NC(=O)[C@H](C(C)C)N(C)C(=O)OCc1ccc(NC(=O)[C@H](CCCNC(N)=O)NC(=O)[C@@H](NC(=O)C2(NC(=O)CCCC(=O)N(C)CC(=O)NCCNc3ncc(-c4cc(C)cc(F)c4)c(N4CCC(N)CC4)c3-c3nc4ccc(Cl)cc4[nH]3)CCN(CC(=O)O)CC2)C(C)C)cc1)C(C)C [Compound 173] | 0.24 nM | 19 nM | 52 nM
